Source: ChEMBL document CHEMBL1135542, “Successful virtual screening for novel inhibitors of human carbonic anhydrase: strategy and experimental confirmation” (J Med Chem, 2002)

Experiments:
Carbonic anhydrase 2 [1] = target: T1, Carbonic anhydrase 2 (Homo sapiens, UniProt P00918)
Carbonic anhydrase 2 [2] = target: T1, Carbonic anhydrase 2; remark: listed apart in the source
Carbonic anhydrase 2 [3] = target: T1, Carbonic anhydrase 2; remark: listed apart in the source

Kd (Carbonic anhydrase 2 [3]) [nM]	SMILES	IC50 (Carbonic anhydrase 2 [1]) [nM]	Ki (Carbonic anhydrase 2 [2]) [nM]
	NS(=O)(=O)c1cc2cc(N3CCSCC3)sc2s1	2.6	0.44
	CN(C)S(=O)(=O)Oc1ccc2nc(S(N)(=O)=O)sc2c1	1.2	
0.13	CCN[C@H]1CN(CCCCOC)S(=O)(=O)c2sc(S(N)(=O)=O)cc21	3.2	
	CN(C)Cc1cc(S(=O)(=O)c2ccc(S(N)(=O)=O)s2)ccc1O	0.7	
	CC(C)(C)C(=O)Oc1ccc2sc(S(N)(=O)=O)cc2c1	2.6	
	NS(=O)(=O)c1cc2cc(N3CCOCC3)sc2s1	3	1.1
43	NC(=O)NCCOCCOCCNC(=O)c1ccc(S(N)(=O)=O)cc1		
93000	CN(C)c1cccc2c(S(N)(=O)=O)cccc12		
	COCCOCCN(CCOC)c1cc2cc(S(N)(=O)=O)sc2s1	2.8	1.58
	CCCCCCCCCS(=O)(=O)C(F)S(N)(=O)=O (configuration not stated)	3	
	CC1(C)O[C@H]2[C@@H]3OS(=O)(=O)O[C@@H]3CC[C@@]2(COS(N)(=O)=O)O1	130	
	NS(=O)(=O)OCCOc1ccc(-n2ccnc2)cc1		7

SMILES	Kd (Carbonic anhydrase 2 [3]) [nM]	IC50 (Carbonic anhydrase 2 [1]) [nM]	Ki (Carbonic anhydrase 2 [2]) [nM]
N[C@@H](Cc1ccccc1)C(=O)NCCOCCOCCNC(=O)c1ccc(S(N)(=O)=O)cc1 [PHENYLALANYLAMINODI(ETHYLOXY)ETHYL BENZENESULFONAMIDEAMINOCARBONYLBENZENESULFONAMIDE]	14		
